Results taken from patent US12178809B2, “Pyridinyl sulfonamide derivatives, pharmaceutical compositions and uses thereof” (Boehringer Ingelheim International GmbH, priority 2018, dated 2024).
pIC50: −log10 of the molar value. Where two headings read alike, the source gives them in different places.

How the values were obtained:
AOC2 = AOC2 (Homo sapiens (Human), UniProt O75106); assay: AOC2 biochemical assay (Amplex Red)
Protocol: An aliquot of 5 μL of the compound dilution is added to a 96 well plate (flat bottom F, black, GREINER bio-one, #655900) in a DMSO concentration of 2%. […] Cells are cultured for 3 days in EMEM culture medium containing 10% FCS (#04-00-1A, Biological Industries). After washing twice with ice cold PBS, cells are lysed by mechanic homogenation and cleared supernatants are shock frozen in liquid nitrogen and stored at -80° C. […] An Aliquot of 45 μL is added to the compound dilution and incubated for 30 min at 37° C. The enzymatic reaction is started with the addition of 50 μL of Amplex® Red reaction mix (final assay concentration: 100 mM sodiumphosphate, 120 μM Amplex® Red reagent (#A22177 Molecular Probes), 1.5 U/mL Horseradish Peroxidase (#P8375 Sigma-Aldrich), 2 mM phenylethylamine (#[…] Sigma-Aldrich), 0.05% Pluronic F-127 (#P3000MP Sigma-Aldrich), pH 7.4, 37° C.). The turnover per time of the substrate is determined directly with a fluorescence reader (Ex 540 nm/Em 590 nm) like Envision 2104 Multilabel Reader (PERKIN ELMER) for 60 min.

human AOC3 enzyme = human AOC3 enzyme (Homo sapiens (Human), UniProt Q16853); assay: AOC3 biochemical assay (MAO-Glo)
Chain of human AOC3 enzyme (Q16853 whole entry): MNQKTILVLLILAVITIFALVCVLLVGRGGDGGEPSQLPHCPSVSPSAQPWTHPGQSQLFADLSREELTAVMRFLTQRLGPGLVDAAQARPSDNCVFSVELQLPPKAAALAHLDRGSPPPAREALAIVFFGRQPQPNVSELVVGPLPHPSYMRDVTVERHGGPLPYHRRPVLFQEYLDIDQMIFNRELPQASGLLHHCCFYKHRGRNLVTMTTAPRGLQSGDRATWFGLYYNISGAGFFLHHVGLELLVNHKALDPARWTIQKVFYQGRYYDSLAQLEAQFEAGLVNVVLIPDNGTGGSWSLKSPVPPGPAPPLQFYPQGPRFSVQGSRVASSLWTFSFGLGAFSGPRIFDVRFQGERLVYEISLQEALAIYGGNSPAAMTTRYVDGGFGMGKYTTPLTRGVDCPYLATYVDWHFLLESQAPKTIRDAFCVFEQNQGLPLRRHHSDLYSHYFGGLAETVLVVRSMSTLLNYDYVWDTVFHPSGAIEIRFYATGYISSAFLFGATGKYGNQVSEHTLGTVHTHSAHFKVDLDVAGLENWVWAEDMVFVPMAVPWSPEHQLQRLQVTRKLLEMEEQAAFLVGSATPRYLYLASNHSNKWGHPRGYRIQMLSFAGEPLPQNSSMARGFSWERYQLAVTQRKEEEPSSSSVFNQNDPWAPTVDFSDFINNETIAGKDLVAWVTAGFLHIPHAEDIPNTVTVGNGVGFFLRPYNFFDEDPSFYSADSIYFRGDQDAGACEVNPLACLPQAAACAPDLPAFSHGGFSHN
Description: The MAO-Glo™ Assay (commercially available from PROMEGA, #V1402) provides a sensitive method for the measurement of monoamine oxidase (MAO) activity (Valley, M. P. et al., 2006, Anal. Biochem. 359: 238-246) from a variety of tissues, biofluids or recombinant expressed or purified enzymes. As substrate a derivate of the beetle luciferin ((4S)-4,5-dihydro-2-(6-hydroxybenzothiazolyl)-4-thiazole-carboxylic acid) is used, which is oxidized at a primary amine moiety. After a spontaneous elimination and a catalyzed esterase reaction, the turnover of the luciferine by the luciferase is recorded as a signal of AOC3 activity.
An aliquot of 3 μL of the compound dilution is added to a 384 well plate (Optiplate, PS, flat bottom, white, PERKIN ELMER, #6007290) with a final DMSO concentration of 6.6%. Recombinant CHO cells, overexpressing the human (1500 cells/well), mouse (1000 cells/well) or rat (500 cells/well) AOC3 enzyme are diluted in reaction buffer and added in a volume of 15 μL to the wells. After incubation for 20 minutes at 37° C., 2 μL of MAO substrate (dissolved in DMSO at 16 mM, adjusted to assay concentration in reaction buffer to a final assay concentration of 20 μM) is added and further incubated for 60 minutes at 37° C. The turnover of the substrate is determined by the addition of 20 μL of the detection-mix which was generated by the addition of reconstitution buffer with esterase (PROMEGA, #V1402) to the luciferine detection reagent (PROMEGA, #V1402). After an incubation period of 20 minutes, the luminescent signal is measured with Envision 2104 Multilabel Reader (PERKIN ELMER).

AOC1 = AOC1 (Homo sapiens (Human), UniProt P19801); assay: AOC1 biochemical assay (Amplex Red)
Chain of AOC1 (P19801 20-751): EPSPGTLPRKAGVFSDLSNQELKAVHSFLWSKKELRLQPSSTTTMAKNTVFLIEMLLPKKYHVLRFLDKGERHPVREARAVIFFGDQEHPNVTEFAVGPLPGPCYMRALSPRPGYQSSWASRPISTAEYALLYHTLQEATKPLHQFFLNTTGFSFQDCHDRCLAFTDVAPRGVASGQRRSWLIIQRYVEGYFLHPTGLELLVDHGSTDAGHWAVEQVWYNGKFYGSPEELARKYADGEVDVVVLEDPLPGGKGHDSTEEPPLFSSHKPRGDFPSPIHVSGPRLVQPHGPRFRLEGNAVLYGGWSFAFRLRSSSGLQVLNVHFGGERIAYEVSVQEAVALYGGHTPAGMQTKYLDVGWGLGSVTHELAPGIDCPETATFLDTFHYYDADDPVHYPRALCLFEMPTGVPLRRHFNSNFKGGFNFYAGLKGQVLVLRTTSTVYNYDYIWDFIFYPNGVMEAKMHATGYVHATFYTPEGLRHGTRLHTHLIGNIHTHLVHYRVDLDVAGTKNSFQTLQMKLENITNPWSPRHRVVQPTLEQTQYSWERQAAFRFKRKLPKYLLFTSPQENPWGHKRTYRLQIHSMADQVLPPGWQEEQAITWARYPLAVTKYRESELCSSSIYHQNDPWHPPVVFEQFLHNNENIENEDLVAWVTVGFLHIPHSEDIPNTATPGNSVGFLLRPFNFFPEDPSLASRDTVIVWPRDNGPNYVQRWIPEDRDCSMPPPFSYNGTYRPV
Protocol: The Amplex® Red Assay (available from Thermo Fisher Scientific) provides a sensitive method for the detection of H2O2 generated during enzymatic reactions like the amine oxidation catalyzed by AOC1. The assay reagent is a colorless substrate (N-acetyl-3,7-dihydroxyphenoxazine) that reacts in a 1:1 stoichiometry with hydrogen peroxide (H2O2) to produce the fluorescent dye resorufin (7-hydroxyphenoxazin-3-one, excitation/emission maxima=570/585 nm).
An aliquot of 3 μL of the compound dilution is added to a 384 well plate (Optiplate, PS, flat bottom F, black, PERKIN ELMER, #6007270) in a DMSO concentration of 6.6%.
An AOC1 enzyme aliquot (#8297-AO-010, R&D Systems) is thawed on ice, diluted in reaction buffer and added in a volume of 7 μL to the wells to give a final assay concentration of 1 ng/well. After incubation of inhibitor and enzyme for 30 minutes at 37° C., the enzymatic reaction is started with the addition of 10 μL of Amplex® Red reaction mix (final assay concentration: 100 mM sodiumphosphate, 120 μM Amplex® Red reagent (#A22177 Molecular Probes), 1.5 U/mL Horseradish Peroxidase (#P8375 Sigma-Aldrich), 200 μM putrescine (#P7505 Sigma-Alrdich), 0.05% Pluronic F-127 (#P3000MP Sigma-Aldrich), pH 7.4, 37° C.).
After an incubation for 30 minutes at 37° C. the turnover of the substrate is determined directly (or after the addition of an excess of an amine-oxidase inhibitor) with a fluorescence reader (Ex 540 nm/Em 590 nm) like Envision 2104 Multilabel Reader (PERKIN ELMER).

[1] = comparison table, read-out: IC50 AOC2
[2] = comparison table, read-out: IC50 AOC3
[3] = comparison table, read-out: IC50 AOC1

Chain of AOC2 (O75106 whole entry): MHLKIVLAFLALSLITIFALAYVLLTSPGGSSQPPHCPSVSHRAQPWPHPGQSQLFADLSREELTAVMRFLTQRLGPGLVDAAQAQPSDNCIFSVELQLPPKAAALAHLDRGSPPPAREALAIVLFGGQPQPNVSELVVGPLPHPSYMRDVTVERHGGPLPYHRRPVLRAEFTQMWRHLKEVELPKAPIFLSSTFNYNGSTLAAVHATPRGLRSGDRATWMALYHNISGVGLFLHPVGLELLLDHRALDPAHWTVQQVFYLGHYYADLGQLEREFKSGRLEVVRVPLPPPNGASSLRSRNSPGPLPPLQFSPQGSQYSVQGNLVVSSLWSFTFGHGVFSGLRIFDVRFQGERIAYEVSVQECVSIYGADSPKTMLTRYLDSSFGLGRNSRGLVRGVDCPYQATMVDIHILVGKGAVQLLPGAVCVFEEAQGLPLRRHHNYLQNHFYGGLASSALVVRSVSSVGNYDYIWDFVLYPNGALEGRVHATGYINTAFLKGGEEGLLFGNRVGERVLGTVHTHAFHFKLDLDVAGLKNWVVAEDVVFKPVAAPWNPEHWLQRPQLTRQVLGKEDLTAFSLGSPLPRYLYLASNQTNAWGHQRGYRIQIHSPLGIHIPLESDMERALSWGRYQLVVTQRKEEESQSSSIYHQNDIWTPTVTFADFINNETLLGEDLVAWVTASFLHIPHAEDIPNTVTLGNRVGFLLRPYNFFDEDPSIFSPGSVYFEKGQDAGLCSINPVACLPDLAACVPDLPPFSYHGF

SMILES	pIC50 (AOC2; [1])	pIC50 (AOC2; read-out: AOC2 IC50)	pIC50 (human AOC3 enzyme; [2])	pIC50 (human AOC3 enzyme; read-out: AOC3 IC50)	pIC50 (AOC1; [3])	pIC50 (AOC1; read-out: AOC1 IC50)	fold less active against AOC2 as compared to AOC3 (ratio IC50 AOC2/IC50 AOC3) (AOC2)	IC50 (AOC1; comparison table, unit μM, read-out: IC50 AOC1) [µM]	pIC50 (AOC2; read-out: IC50 AOC2)
COC1CN(S(=O)(=O)c2ccc(OC/C(=C/F)CN)nc2)C1 [Example 42]	7.06	7.06	7.70	7.70	< 4.30	< 4.30			
COC1CN(S(=O)(=O)c2ccc(OC/C(=C/F)CN)cc2)C1 [Reference compound A, reference compound]	6.54		7.89				22 fold	> 50	
CC(C)(O)C1CN(S(=O)(=O)c2ccc(OC/C(=C/F)CN)nc2)C1 [Example 26]		6.79		7.35		< 4.30			
NC/C(=C\F)COc1ccc(S(=O)(=O)N2CCC(C(=O)N3CCOCC3)(c3ccccc3)CC2)cn1 [Example 09]		6.31		7.41		5.21			
NC/C(=C\F)COc1ccc(S(=O)(=O)N2CCC(O)(C(F)(F)F)CC2)cn1 [Example 50]		7.62		7.70		< 4.30			
COC(=O)[C@H]1[C@@H]2CN(S(=O)(=O)c3ccc(OC/C(=C/F)CN)nc3)C[C@@H]21 [Example 52]		6.50		8.05		4.38			
CCC(=O)NC1CCN(S(=O)(=O)c2ccc(OC/C(=C/F)CN)nc2)CC1 [Example 02]		5.94		7.48		< 4.30			
NC/C(=C\F)COc1ccc(S(=O)(=O)N2CC(C3CCN(C(=O)C4CC4)CC3)C2)cn1 [Example 32]		7.14		7.77		4.40			
NC/C(=C\F)COc1ccc(S(=O)(=O)N2CC(C(N)=O)C2)cn1 [Example 31]		6.92		7.68		< 4.30			
NC/C(=C\F)COc1cnc(N2CC[C@H](O)C2)nc1 [Example 6 of WO 2018/027892, reference compound]	5.95		7.23		5.93				
NC/C(=C\F)COc1ccc(S(=O)(=O)N2CCC2)cn1 [Example 39]		6.58		7.72		4.77			
CCNC(=O)C1(C)CCN(S(=O)(=O)c2ccc(OC/C(=C/F)CN)nc2)CC1 [Example 34]		7.85		7.85		4.80			
CN(C)S(=O)(=O)c1ccc(OC/C(=C/F)CN)cc1 [Compound 14 of WO 2013/163675, reference compound]	5.93		8.10		< 4.30		ca. 145 fold		5.93
CCNC(=O)C1CCN(S(=O)(=O)c2ccc(OC/C(=C/F)CN)nc2)CC1 [Example 11]		6.40		7.92		< 4.30			
CC(=O)N1CC(C2CCN(S(=O)(=O)c3ccc(OC/C(=C/F)CN)nc3)CC2)C1 [Example 14]		6.51		7.39		4.85			
NC/C(=C\F)COc1ccc(S(=O)(=O)N2CCCC2)cn1 [Example 38]		6.56		7.89		< 4.30			
COC(=O)C1(C)CCN(S(=O)(=O)c2ccc(OC/C(=C/F)CN)nc2)CC1 [Example 53]		7.72		7.82		< 4.30			
